How the values were obtained:
[1] = tested on: K^+ channel, rabbit mesenteric artery (RMA) rings; assay: Inhibition of pinacidil-induced relaxation of norepinephrine-contracted isolated rabbit mesenteric artery (RMA) rings (K^+ channel antagonism); format: cell-based; conditions: Oryctolagus cuniculus, 0.25 h, pinacidil 1 μM, norepinephrine 5 μM, read-out: RMA K^+ Antagonism % I (percent inhibition of pinacidil relaxation at 15 minutes); for inhibition at 0.1 µM: conc. 0.1 μM; for inhibition at 0.3 µM: conc. 0.3 μM; for inhibition at 10 µM: conc. 10 μM
Method: The results for potassium channel blocking were obtained by using isolated rabbit mesenteric artery (RMA) procedures. Norepinephrine (5 μM) was used to contract the RMA rings twice, with an hour separating the two contractions. During this hour the tissues equilibrated in physiological salt solution at a resting tension of 1 gram. Upon the plateau of the second contraction 1 μM pinacidil was added to all tissues and the resulting relaxation time course was studied for thirty minutes. […] By studying the ability of the test compounds to inhibit this pinacidil-induced relaxation, the degree of potassium antagonism could be determined. The compounds were applied to the tissues for one hour between the two contractions and the pinacidil-induced relaxation was studied in the continuing presence of the compounds. Thus, the total time of pretreatment with the test compound was 75 minutes before the addition of pinacidil.
(§1) Data for K^+ channel antagonist activity on rabbit mesenteric artery (RMA) and natriuretic efficacy after […] (IP) administration to rats are collected in Table II.
^a Lowest inhibitor concentration (μM) that gave greater than 20%
inhibition or lowest concentration tested.
^b This is a measure of a compound's ability to inhibit the relaxatio
of norepinephrine (5 μM) contracted rabbit mesenteric artery rings by
pinacidil (1 μM). It is expressed as percent inhibition. Compounds wit
65% or greater inhibition at 5 μM are considered to be active, with
20-65% inhibition moderately active and with less than 20% inhibition

[2] = Diuretic screen: urinary Na^+ excretion after IP administration to rats; format: in vivo, rat (female Harlan Sprague-Dawley); conditions: rat, IP, 5, 15 and 30 mg/kg, 5 hour test period
Method: as §1
The diuretic activity was determined in female Harlan Sprague-Dawley rats weighing 200 to 230 grams that were fasted 15 hours overnight, and then were deprived of both food and water for an additional hour prior to dosing. […] It approximates the area under the dose response curve. The vehicle was 20% dimethylacetamide (DMA; v/v) in a pH 7.4 phosphate buffer (0.58% Na2 HPO4 and 0.13% NaH2 PO4.H2 O). Sufficient drug was suspended in 1 to 2 ml of this vehicle to deliver doses of 5, 15 and 30 mg/kg in a volume of 0.5 ml (2-4 rats/dose). At least 2 vehicle control rats, and, for most tests, 2 standard diuretic treated rats were included in each experiment. Standards used as comparators included the K^+ retaining diuretic amiloride and the K^+ wasting diuretics furosemide, hydrochlorothiazide and metolazone.
Following their IP doses, the rats' urinary bladders were gently compressed to eliminate all pretreatment urine, and two identically treated rats were placed in a stainless steel metabolism cage equipped with a graduated test tube to collect voided urine. At 2 and 5 hours post treatment, the rats' bladders were again compressed, the volume of urine excreted by the pair of rats was recorded, and aliquots of urine were retained for analysis of Na^+ and K^+ concentrations with a NOVA-13 selective ion analyzer. Following the 5 hour urine collection, the rats were returned to their stock cages, and at least 1 week of recovery was allowed between a maximum of 3 diuretic tests.
The electrolyte concentrations detected in these urine samples were manually multiplied by their respective volumes to determine total milliequivalent (mEq) excretion of Na^+ and K^+ per pair of rats, and the results obtained with multiple racks per drug treatment were averaged. Increases in urinary Na^+ excretion of 50% or more above the pooled control tests were regarded as reflecting activity.
^c This represents the net increase (above control) in urinary
Na^+ excretion (μEq) for the 5 hour test period divided by the
total of the three drug doses (mg/kg) administered IP in the stage II
diuretic screen in rats. It approximates the area under the dose response

[3] = tested on: K^+ channel, rabbit mesenteric artery (RMA) rings; conditions: pinacidil 1 μM, norepinephrine-contracted RMA rings; cited from earlier work

Row | Structure (SMILES) | 5 h Net Natriuretic Efficacy (net increase above control in urinary Na^+ excretion divided by total of three doses) [2] [μEq Na^+ /mg/kg] | inhibition at 10 µM [1] [%] | further results
1 | N#CN=C(Nc1cnc(Cl)c(N)c1)NC1(c2ccccc2)CCC1 [Compound 1, N-(5-Amino-6-chloro-3-pyridyl)-N"-cyano-N'-(1-phenylcyclobutyl)guanidine] | 39 |  | inhibition at 0.1 µM [1]: 90%
2 | Cc1nc(N)ccc1NC(=NC#N)NC1(c2ccccc2)CCC1 [Compound 2, N-(6-Amino-2-methyl-3-pyridyl)-N"-cyano-N'-(1-phenylcyclobutyl)guanidine, methanol solvate] | 77 |  | inhibition at 0.3 µM [1]: 96%
3 | N#CN=C(Nc1cncc(N)c1)NC1(c2ccccc2)CCC1 [Compound 3, N-(5-Amino-3-pyridyl)-N"-cyano-N'-(1-phenylcyclobutyl)guanidine] | 50 |  | inhibition at 0.3 µM [1]: 93%
4 | CN(C)c1ncccc1NC(=NC#N)NC1(c2ccccc2)CCC1 [Compound 4, N-[2-(Dimethylamino)-3-pyridyl]-N"-cyano-N'-(1-phenylcyclobutyl)guanidine] | 10 |  | inhibition at 2 µM ([1]; conc. 2.0 μM): 87%
5 | C[C@@H](NC(=NC#N)Nc1cccnc1N(C)C)c1ccccc1 [Compound 5, (R)-N-[2-(Dimethylamino)-3-pyridyl]-N"-cyano-N'-(1-phenylethyl)guanidine] | 15 |  | inhibition at 5 µM ([1]; conc. 5 μM): 17.4%
6 | CC[C@@H](N=C(NC#N)Nc1cccnc1Cl)c1ccccc1 [Compound 6, (R)-N-(2-chloro-3-pyridyl)-N'-cyano-N"-(1-phenylpropyl)guanidine] | 48 |  | inhibition at 0.1 µM [1]: 77.5%
7 | N#CN=C(Nc1ccc(NCCF)nc1)NC1(c2ccccc2)CCC1 [Compound 7, N-[6(2-Fluoroethylamino)-3-pyridyl]-N"-cyano-N'-(1-phenylcyclobutyl)guanidine] | 60 |  | inhibition at 1 µM ([1]; conc. 1.0 μM): 24.3%
8 | CC[C@@H](NC(=NC#N)Nc1ccc(C)nc1)c1ccccc1 [Compound 8, (R)-N-(6-Methyl-3-pyridyl)-N"-cyano-N'-(1-phenylpropyl)guanidine] | 25 | 84.1 | 
9 | CC[C@@H](NC(=NC#N)Nc1cncc(Br)c1)c1ccccc1 [Compound 9, (R)-N-(5-Bromo-3-pyridyl)-N"-cyano-N'-(1-phenylpropyl)guanidine] | 12 | 94.6 | 
10 | CC[C@@H](NC(=NC#N)Nc1ccc(NCCF)nc1)c1ccccc1 [Compound 10, (R)-N-[6-(2-Fluoroethylamino)-3-pyridyl]-N"-cyano-N'-(1-phenylpropyl)guanidine] | 34 | 72.3 | 
11 | CC[C@@H](NC(=NC#N)Nc1cccnc1C)c1ccccc1 [Compound 11, (R)-N-(2-Methyl-3-pyridyl)-N"-cyano-N'-(1-phenylpropyl)guanidine] | 25 | 91.6 | 
12 | CC[C@@H](NC(=NC#N)Nc1cncc(N)c1)c1ccccc1 [Compound 12, (R)-N-(5-Amino-3-pyridyl)-N"-cyano-N'-(1-phenylpropyl)guanidine] | 26 | 85.8 | 
13 | CC(=O)Nc1cncc(NC(=NC#N)NC2(c3ccccc3)CCC2)c1 [Compound 13, N-(5-Acetylamino-3-pyridyl)-N"-cyano-N'-(1-phenylcyclobutyl)guanidine] | 15 | 6.4 | 
14 | CC[C@@H](NC(=NC#N)Nc1ccc(NS(C)(=O)=O)nc1)c1ccccc1 [Compound 14, (R)-N-(6-Methanesulfonylamino-3-pyridyl)-N"-cyano-N'-(1-phenylpropyl)guanidine] | 21 |  | inhibition at 30 µM ([1]; conc. 30 μM): 2.3%
15 | CC(N/C(=N\C#N)Nc1ccncc1)C(C)(C)C (centres unmarked) [pinacidil] |  |  | K^+ channel dependent vasodilation by pinacidil [3]: maximal K^+ channel dependent vasodilation
